Test results taken from publication PMC10037270 (Journal of medicinal chemistry, 2023).

Key:
HA-mouse μOR = HA-mouse μOR (Mus musculus, UniProt P42866); experiment: GloSensor cAMP inhibition assay at μOR in transfected HEK cells; assay type: cell-based; conditions: HEK293, read-out: cAMP inhibition at μOR Emax % ± SEM
μOR [1] = target: T1, μOR (Homo sapiens, UniProt P35372); assay type: binding; conditions: screen at 1 μM, [3H]DAMGO
κOR = κOR (Homo sapiens, UniProt P41145); assay type: binding
μOR [2] = target: T1, μOR; assay type: cell-based; conditions: at 10 μM, DAMGO as control
C57BL/6 mice [3] = experiment: Warm-water tail-flick assay; assay type: in vivo
C57BL/6 mice [4] = experiment: Hot-plate assay; assay type: in vivo
C57BL/6 mice [5] = experiment: Accelerating rotarod assay; assay type: in vivo
[6] = naloxone 10 mg/kg i.p. 15 min before 33 100 mg/kg s.c.

Sequence of HA-mouse μOR (P42866 whole entry): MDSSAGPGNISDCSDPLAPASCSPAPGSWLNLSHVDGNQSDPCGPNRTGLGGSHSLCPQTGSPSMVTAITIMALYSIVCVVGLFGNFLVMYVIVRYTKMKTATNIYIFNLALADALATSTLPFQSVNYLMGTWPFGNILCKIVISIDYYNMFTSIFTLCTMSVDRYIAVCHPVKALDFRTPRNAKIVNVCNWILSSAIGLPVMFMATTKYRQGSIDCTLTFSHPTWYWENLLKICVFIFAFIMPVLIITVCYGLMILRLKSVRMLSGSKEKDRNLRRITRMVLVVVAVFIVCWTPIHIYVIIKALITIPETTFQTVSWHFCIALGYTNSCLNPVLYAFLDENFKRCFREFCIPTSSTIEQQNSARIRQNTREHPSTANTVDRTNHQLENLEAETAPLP
T1 sequence (P35372 whole entry): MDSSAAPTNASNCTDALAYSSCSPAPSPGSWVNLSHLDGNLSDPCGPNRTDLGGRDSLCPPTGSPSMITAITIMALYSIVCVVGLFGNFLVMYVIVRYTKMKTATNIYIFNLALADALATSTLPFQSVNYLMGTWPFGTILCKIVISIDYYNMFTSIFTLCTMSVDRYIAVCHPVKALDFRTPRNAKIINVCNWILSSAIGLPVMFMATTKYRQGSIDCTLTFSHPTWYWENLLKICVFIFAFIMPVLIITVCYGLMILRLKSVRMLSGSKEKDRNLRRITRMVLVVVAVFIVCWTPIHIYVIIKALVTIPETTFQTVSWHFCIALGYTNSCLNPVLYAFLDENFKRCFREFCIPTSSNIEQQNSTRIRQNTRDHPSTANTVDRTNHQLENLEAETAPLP
Sequence of κOR (P41145 whole entry): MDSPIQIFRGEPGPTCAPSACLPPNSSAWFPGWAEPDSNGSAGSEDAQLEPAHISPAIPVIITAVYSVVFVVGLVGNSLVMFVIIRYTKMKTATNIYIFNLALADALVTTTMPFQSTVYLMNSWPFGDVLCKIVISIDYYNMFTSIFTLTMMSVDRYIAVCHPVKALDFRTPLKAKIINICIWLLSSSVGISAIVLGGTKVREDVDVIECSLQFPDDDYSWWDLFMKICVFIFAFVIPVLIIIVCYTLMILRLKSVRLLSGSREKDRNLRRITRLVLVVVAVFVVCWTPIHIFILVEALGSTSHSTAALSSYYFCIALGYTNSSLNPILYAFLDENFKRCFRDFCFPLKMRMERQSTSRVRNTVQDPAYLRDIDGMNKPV

**Q.** `C/C=C1/CN2CC[C@@]34c5cc(O)ccc5N(C)[C@]35OC[C@@]4(C(=O)OC)[C@H]1C[C@H]25` [Compound 1, Akuammine, reference compound] was tested. Which Emax (HA-mouse μOR) did it give?
**A.** 62 ± 6%

**Q.** Which Emax (HA-mouse μOR) does the source give for `C/C=C1/CN2CC[C@@]34c5ccccc5N(C)[C@]35OC[C@@]4(C(=O)OC)[C@H]1C[C@H]25` [Compound 2, Pseudoakuammigine, reference compound] here?
**A.** 82 ± 7%

**Q.** With `C/C=C1/CN2CC[C@@]34c5cc(O)c(Br)cc5N(C)[C@]35OC[C@@]4(C(=O)OC)[C@H]1C[C@H]25` [Compound 19, 11-Bromoakuammine] as the molecule, how does the “radioligand displacement at μOR” value (μOR [1]) read?
**A.** > 50%

**Q.** What about the “radioligand displacement at κOR” value (κOR) of the same molecule?
**A.** > 50%

**Q.** What about the Emax (HA-mouse μOR) of the same molecule?
**A.** 40 ± 5%

**Q.** For `C/C=C1/CN2CC[C@@]34c5cc(O)c(I)cc5N(C)[C@]35OC[C@@]4(C(=O)OC)[C@H]1C[C@H]25` [Compound 20, 11-Iodoakuammine], which “radioligand displacement at μOR” value (μOR [1]) is on record?
**A.** > 50%

**Q.** What about the “radioligand displacement at κOR” value (κOR) of the same molecule?
**A.** > 50%

**Q.** What about the Emax (HA-mouse μOR) of the same molecule?
**A.** 32 ± 6%

**Q.** With `C/C=C1\CN2CC[C@@]34c5ccccc5N(CC)[C@]35OC[C@@]4(C(=O)OC)[C@H]1C[C@H]25` [Compound 31, N-1-Ethyl psuedoakuammigine] as the molecule, how does the Emax (HA-mouse μOR) read?
**A.** 59 ± 4%

**Q.** How did the Emax (HA-mouse μOR) turn out when `C/C=C1\CN2CC[C@@]34c5ccccc5N(Cc5ccccc5)[C@]35OC[C@@]4(C(=O)OC)[C@H]1C[C@H]25` [Compound 32, N-1-Benzyl psuedoakuammigine] was run?
**A.** 63 ± 4%

**Q.** For `C/C=C1\CN2CC[C@@]34c5ccccc5N(CCc5ccccc5)[C@]35OC[C@@]4(C(=O)OC)[C@H]1C[C@H]25` [Compound 33, N-1-Phenethyl psuedoakuammigine], which Emax (HA-mouse μOR) is on record?
**A.** 76 ± 5%

**Q.** And the “recruitment of βArr2 to the μOR” value (μOR [2])?
**A.** < 10%

**Q.** And the ED50 (C57BL/6 mice [3]; Mus musculus, sc, read-out: ED50 tail-flick assay)?
**A.** 77.6 mg/kg

**Q.** And the “antinociception versus morphine (10 mg/kg), peak effect and duration” value (C57BL/6 mice [3]; mice, 100 mg/kg s.c., tail-flick)?
**A.** comparable to that of the morphine

**Q.** And the “antinociceptive effect in tail-flick assay” value (C57BL/6 mice [3]; mice, 80 and 100 mg/kg s.c.)?
**A.** exhibited antinociceptive effect

**Q.** What about the “antinociceptive effect after naloxone pretreatment, tail-flick” value (C57BL/6 mice [3]; [6]) of the same molecule?
**A.** completely blocked by naloxone

**Q.** And the “antinociceptive effect in hot-plate assay” value (C57BL/6 mice [4]; mice, 80 and 100 mg/kg s.c.)?
**A.** exhibited antinociceptive effect

**Q.** And the “antinociceptive effect after naloxone pretreatment, hot-plate” value (C57BL/6 mice [4]; [6])?
**A.** completely blocked by naloxone

**Q.** And the “effect on locomotor activity, latency to fall” value (C57BL/6 mice [5]; 65 mg/kg and 80 mg/kg s.c., accelerating rotarod 4-40 rpm over 300 s)?
**A.** significantly impaired motor activity

**Q.** And the “effect on motor coordination” value (C57BL/6 mice [5]; high doses (80, 100 mg/kg, s.c.))?
**A.** impair motor coordination

**Q.** How did the Emax (HA-mouse μOR) turn out when `C[C@@H](NC(=O)[C@@H](N)Cc1ccc(O)cc1)C(=O)NCC(=O)N(C)[C@@H](Cc1ccccc1)C(=O)NCCO` [DAMGO, (2S)-2-[[2-[[(2R)-2-[[(2S)-2-Amino-3-(4-hydroxyphenyl)propanoyl]amino]propanoyl]amino]acetyl]-methylamino]-N-(2hydroxyethyl)-3-phenylpropanamide, reference compound] was run?
**A.** 96 ± 4%
